The results in this text go back to patent US20220233512A1, “INHIBITING AN IMMUNE RESPONSE MEDIATED BY ONE OR MORE OF TLR2, RAGE, CCR5, CXCR4 AND CD4” (priority 2020, published 2022).

This assay addresses T1, mu opiate receptor (MOR) (Rattus norvegicus, UniProt P33535).
T1 construct: from tissue; host or cells: striatum (membrane preparation)
Briefly: MOR agonist activity using [35S]GTPgS binding assay in striatal membranes. In kind it is biochemical. On the set-up: MOR agonist activity (preliminary study): unit of the concentration uncertain. Particulars: for MOR agonist activity (preliminary study): average of two runs. How it is done: To assess the mu opiate receptor (MOR) agonist activity of positive compounds from the FLNA screening, compounds were tested in a [^35S]GTPgS binding assay using striatal membranes. […] This assay measures a functional consequence of receptor occupancy at one of the earliest receptor-mediated events. The assay permits for traditional pharmacological parameters of potency, efficacy and antagonist affinity, with the advantage that agonist measures are not subjected to amplification or other modulation that may occur when analyzing parameters further downstream of the receptor.
Thus, striatal tissue was homogenized in 10 volumes of ice cold 25 mM HEPES buffer, pH 7.4, which contained 1 mM EGTA, 100 mM sucrose, 50 mg/ml leupeptin, 0.04 mM PMSF, 2 mg/ml soybean trypsin inhibitor and 0.2% 2-mercaptoethanol. The homogenates were centrifuged at 800×g for 5 minutes and the supernatants were centrifuged at 49,000×g for 20 minutes. The resulting pellets were suspended in 10 volume of reaction buffer, which contained 25 mM HEPES, pH 7.5, 100 mM NaCl, 50 mg/ml leupeptin, 2 mg/ml soybean trypsin inhibitor, 0.04 mM PMSF and 0.02% […].
The resultant striatal membrane preparation (200 mg) was admixed and maintained (incubated) at 30° C. for 5 minutes in reaction buffer as above that additionally contained 1 mM MgCl2 and 0.5 nM [^35S]GTPgS (0.1 mCi/assay, PerkinElmer Life and Analytical Sciences) in a total volume of 250 ml and continued for 5 minutes in the absence or presence of 0.1-10 mM of an assayed compound of interest. The reaction was terminated by dilution with 750 ml of ice-cold reaction buffer that contained 20 mM MgCl2 and 1 mM EGTA and immediate centrifugation at 16,000×g for 5 minutes.
The resulting pellet was solubilized by sonicating for 10 seconds in 0.5 ml of immunoprecipitation buffer containing 0.5% digitonin, 0.2% sodium cholate and 0.5% NP-40. Normal rabbit serum (1 ml) was added to 1 ml of lysate and incubated at 25° C. for 30 minutes. Nonspecific immune complexes were removed by incubation with 25 ml of protein A/G-conjugated agarose beads at 25° C. for 30 minutes followed by centrifugation at 5,000×g at 4° C. for 5 minutes. The supernatant was divided and separately incubated at 25° C. for 30 minutes with antibodies raised against Gao proteins (1:1,000 dilutions).
The immunocomplexes so formed were collected by incubation at 25° C. for 30 minutes with 40 ml of agarose-conjugated protein A/G beads and centrifugation at 5,000×g at 4° C. for 5 minutes. The pellet was washed and suspended in buffer containing 50 mM Tris-HCl, pH 8.0, and 1% NP-40. The radioactivity in the suspension was determined by liquid scintillation spectrometry. […] DAMGO (1 or 10 mM) was used as a positive control.

[1] abbreviates: 0.1 μM compound as agonist, Series C-2 table.
Setting [2] is: 1 μM compound as agonist, Series C-2 table.
Setting [3] is: 0.1 μM compound as agonist, Series C-1 table.
Setting [4] is: 1 μM compound as agonist, Series C-1 table.
Setting [5] is: 0.1 (unit uncertain) compound as agonist.
Where [6] appears, read: 1 (unit uncertain) compound as agonist.

T1 sequence (P33535 whole entry): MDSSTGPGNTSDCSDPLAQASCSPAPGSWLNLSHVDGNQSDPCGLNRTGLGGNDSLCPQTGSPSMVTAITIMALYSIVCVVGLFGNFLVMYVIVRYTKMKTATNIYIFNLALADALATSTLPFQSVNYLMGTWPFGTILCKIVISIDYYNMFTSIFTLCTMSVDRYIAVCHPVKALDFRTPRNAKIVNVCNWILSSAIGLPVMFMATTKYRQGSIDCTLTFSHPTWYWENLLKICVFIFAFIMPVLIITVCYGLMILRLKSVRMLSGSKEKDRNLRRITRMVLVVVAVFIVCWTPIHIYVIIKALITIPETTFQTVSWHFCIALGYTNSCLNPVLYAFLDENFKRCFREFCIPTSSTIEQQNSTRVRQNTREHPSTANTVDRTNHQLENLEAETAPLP

With `CC(=O)N1CCSC12CCN(S(=O)(=O)c1ccc([N+](=O)[O-])cc1)CC2` [Compound C0050], the “MOR agonist activity ([35S]GTPgS binding to Gao)” value under setting [1] was 110.3%; the “MOR agonist activity ([35S]GTPgS binding to Gao)” value (1 μM + BFNA, Series C-2 table) is on record as 59.0%; the “MOR agonist activity ([35S]GTPgS binding to Gao)” value under setting [2] is recorded as 127.6%.

In the case of `COc1ccc(S(=O)(=O)N2CCOC23CCN(C)CC3)cc1` [Compound C0088M], the “MOR agonist activity ([35S]GTPgS binding to Gao)” value runs as follows: under setting [1], 276.3%; (1 μM + BFNA, Series C-2 table) 177.1%; under setting [2], 355.3%.

For the molecule `COc1ccc(S(=O)(=O)N2CCC3(CC2)OCCN3S(=O)(=O)c2ccc(OC)cc2)cc1` [Compound 7866], the “MOR agonist activity ([35S]GTPgS binding to Gao)” value reads like this: under setting [3], 152.3%; (1 μM + BFNA, Series C-1 table) 62.4%; under setting [4], 308.2%.

Take `COc1ccc(C(=O)N2CCC3(CC2)OCCN3S(=O)(=O)c2ccc(OC)cc2)cc1` [Compound C0018]: the “MOR agonist activity ([35S]GTPgS binding to Gao)” value by setting is: under setting [3], 195.5%; (1 μM + BFNA, Series C-1 table) 106.5%; under setting [4], 247.7%.

As for `CCCCN1CCC2(CC1)OCCN2S(=O)(=O)c1ccc(OC)cc1` [Compound C0102M], the “MOR agonist activity ([35S]GTPgS binding to Gao)” value was 131.8% under setting [1]; 150.4% (1 μM + BFNA, Series C-2 table); 272.0% under setting [2].

As for `CC(=O)c1ccc(S(=O)(=O)N2CCC3(CC2)OC(CN(C)C)CN3S(=O)(=O)c2ccc(C(C)=O)cc2)cc1` (stereo not drawn) [Compound C0065], the “MOR agonist activity ([35S]GTPgS binding to Gao)” value under setting [3] is listed as 198.3%; the “MOR agonist activity ([35S]GTPgS binding to Gao)” value (1 μM + BFNA, Series C-1 table) is reported as 47.7%; the “MOR agonist activity ([35S]GTPgS binding to Gao)” value under setting [4] stood at 279.5%.

In the case of `CCc1ccc(S(=O)(=O)N2CCOC23CCN(CC2CC2)CC3)cc1` [Compound C0135M], the “MOR agonist activity ([35S]GTPgS binding to Gao)” value is recorded as 161.3% under setting [1]; 113.3% (1 μM + BFNA, Series C-2 table); 310.1% under setting [2].

On to `Cc1ccc(S(=O)(=O)N2CCOC23CCN(CC2CC2)CC3)cc1` [Compound C0134M], for which the “MOR agonist activity ([35S]GTPgS binding to Gao)” value by setting is: under setting [1], 158.5%; (1 μM + BFNA, Series C-2 table) 46.6%; under setting [2], 207.3%. For the same molecule, the “MOR agonist activity (preliminary study)” value is 53.2% (1 mM + bNFA), 150.7% under setting [5] and 224.0% under setting [6].

Take `C[C@@H](NC(=O)[C@@H](N)Cc1ccc(O)cc1)C(=O)NCC(=O)N(C)[C@@H](Cc1ccccc1)C(=O)NCCO` [DAMGO, [D-Ala2, N-MePhe4, Gly-ol]-enkephalin, reference compound]: the “MOR agonist activity ([35S]GTPgS binding to Gao)” value under setting [3] was determined as 168.5%; the “MOR agonist activity ([35S]GTPgS binding to Gao)” value under setting [1] is 168.5%; the “MOR agonist activity ([35S]GTPgS binding to Gao)” value (1 μM + BFNA, Series C-1 table) is reported as 53.2%; the “MOR agonist activity ([35S]GTPgS binding to Gao)” value (1 μM + BFNA, Series C-2 table) is recorded as 53.2%; the “MOR agonist activity ([35S]GTPgS binding to Gao)” value under setting [4] came out at 266.1%; the “MOR agonist activity ([35S]GTPgS binding to Gao)” value under setting [2] was determined as 266.1%. In addition, the “MOR agonist activity (preliminary study)” value came to 56.8% (1 mM + bNFA), 144.7% under setting [5] and 233.4% under setting [6].

Turning to `CC(=O)c1ccc(C(=O)N2CCC3(CC2)OCCN3C(=O)c2ccc(C(C)=O)cc2)cc1` [Compound C0054], the “MOR agonist activity ([35S]GTPgS binding to Gao)” value by setting is: under setting [3], 68.2%; (1 μM + BFNA, Series C-1 table) 43.5%; under setting [4], 127.0%.

In the case of `Cc1cccc(S(=O)(=O)N2CCC3(CC2)OCCN3S(=O)(=O)c2cccc(C)c2)c1` [Compound C0014], the “MOR agonist activity ([35S]GTPgS binding to Gao)” value reads like this: under setting [3], 144.9%; (1 μM + BFNA, Series C-1 table) 76.3%; under setting [4], 153.5%.

With `O=C1CN(Cc2ccccc2)C2(CCN(S(=O)(=O)c3cc(Cl)cc(Cl)c3O)CC2)N1` [Compound C0138M], the “MOR agonist activity ([35S]GTPgS binding to Gao)” value runs as follows: under setting [3], 126.9%; (1 μM + BFNA, Series C-1 table) 51.5%; under setting [4], 183.9%.

For the molecule `CC(=O)c1ccc(S(=O)(=O)N2C(Cc3c[nH]cn3)C(=O)NC23CCNCC3)cc1` (stereo not drawn) [Compound C0119M], the “MOR agonist activity ([35S]GTPgS binding to Gao)” value runs as follows: under setting [1], 105.7%; (1 μM + BFNA, Series C-2 table) 35.1%; under setting [2], 167.8%.

Turning to `O=S(=O)(c1ccc(Br)cc1Br)N1CCC2(CC1)OCCN2S(=O)(=O)c1ccc(Br)cc1Br` [Compound C0070], the “MOR agonist activity ([35S]GTPgS binding to Gao)” value under setting [3] was found to be 165.6%; the “MOR agonist activity ([35S]GTPgS binding to Gao)” value (1 μM + BFNA, Series C-1 table) came out at 114.2%; the “MOR agonist activity ([35S]GTPgS binding to Gao)” value under setting [4] amounted to 210.8%.

In the case of `CC(=O)c1ccc(S(=O)(=O)N2CCC3(CC2)NC(=O)C(Cc2cnc[nH]2)N3S(=O)(=O)c2ccc(C(C)=O)cc2)cc1` (stereo not drawn) [Compound C0084M], the “MOR agonist activity ([35S]GTPgS binding to Gao)” value reads like this: under setting [3], 163.1%; (1 μM + BFNA, Series C-1 table) 133.2%; under setting [4], 255.5%.

Turning to `COc1ccc(S(=O)(=O)N2CCOC23CCN(C(C)C)CC3)cc1` [Compound C0133M], the “MOR agonist activity ([35S]GTPgS binding to Gao)” value under setting [1] amounted to 139.4%; the “MOR agonist activity ([35S]GTPgS binding to Gao)” value (1 μM + BFNA, Series C-2 table) is given as 72.4%; the “MOR agonist activity ([35S]GTPgS binding to Gao)” value under setting [2] is on record as 214.8%.

`O=S(=O)(c1csc2ccccc12)N1CCC2(CC1)OCCN2S(=O)(=O)c1csc2ccccc12` [Compound C0150M]: the “MOR agonist activity ([35S]GTPgS binding to Gao)” value runs as follows: under setting [3], 167.1%; (1 μM + BFNA, Series C-1 table) 93.4%; under setting [4], 423.1%.

In the case of `O=S(=O)(c1ccc(C(F)(F)F)cc1Br)N1CCC2(CC1)OCCN2S(=O)(=O)c1ccc(C(F)(F)F)cc1Br` [Compound C0071], the “MOR agonist activity ([35S]GTPgS binding to Gao)” value is, setting by setting: under setting [3], 276.3%; (1 μM + BFNA, Series C-1 table) 177.1%; under setting [4], 355.3%.

For `O=S(=O)(c1cccs1)N1CCC2(CC1)OCCN2S(=O)(=O)c1cccs1` [Compound C0141M], the “MOR agonist activity ([35S]GTPgS binding to Gao)” value runs as follows: under setting [3], 161.5%; (1 μM + BFNA, Series C-1 table) 47.9%; under setting [4], 213.9%.

On to `COc1ccc(NC(=O)N2CCC3(CC2)OCCN3S(=O)(=O)c2ccc(OC)cc2)cc1` [Compound C0041], for which the “MOR agonist activity ([35S]GTPgS binding to Gao)” value is, setting by setting: under setting [3], 186.1%; (1 μM + BFNA, Series C-1 table) 95.5%; under setting [4], 244.4%.

With `COc1ccc(S(=O)(=O)N2CCCC3(C2)OCCN3S(=O)(=O)c2ccc(OC)cc2)cc1` (stereo not drawn) [Compound C0145M], the “MOR agonist activity ([35S]GTPgS binding to Gao)” value under setting [3] turned out to be 193.0%; the “MOR agonist activity ([35S]GTPgS binding to Gao)” value (1 μM + BFNA, Series C-1 table) is given as 87.0%; the “MOR agonist activity ([35S]GTPgS binding to Gao)” value under setting [4] was found to be 289.2%.

Consider `CN1CCC2(CC1)OCCN2S(=O)(=O)c1ccc(S(C)(=O)=O)cc1` [Compound C0106M], for which the “MOR agonist activity ([35S]GTPgS binding to Gao)” value under setting [1] amounted to 171.8%; the “MOR agonist activity ([35S]GTPgS binding to Gao)” value (1 μM + BFNA, Series C-2 table) stood at 117.2%; the “MOR agonist activity ([35S]GTPgS binding to Gao)” value under setting [2] came to 240.7%.

On to `COc1ccc(S(=O)(=O)N2CCC3(CC2)OCCN3S(=O)(=O)c2ccc(OC)c(OC)c2)cc1OC` [Compound C0049], for which the “MOR agonist activity ([35S]GTPgS binding to Gao)” value is 106.6% under setting [3]; 81.0% (1 μM + BFNA, Series C-1 table); 210.0% under setting [4].

For the molecule `COc1ccc(S(=O)(=O)N2CCC3(CC2)NCCC(=O)N3)cc1` [Compound C0142M], the “MOR agonist activity ([35S]GTPgS binding to Gao)” value by setting is: under setting [1], 143.7%; (1 μM + BFNA, Series C-2 table) 98.7%; under setting [2], 192.5%.

For the molecule `COc1cccc(S(=O)(=O)N2CCC3(CC2)OCCN3S(=O)(=O)c2cccc(OC)c2)c1` [Compound C0002], the “MOR agonist activity ([35S]GTPgS binding to Gao)” value reads like this: under setting [3], 88.4%; (1 μM + BFNA, Series C-1 table) 3.9%; under setting [4], 93.8%.
